Tests used:
[1] = biological target: T1, Histone-lysine N-methyltransferase SMYD3 (Homo sapiens) (UniProt Q9H7B4); test: Selectivity interaction (Methyltransferase screen (radiometric assays, panel of 8 PRMTs, 21 protein lysine methyltransferases, 3 DNA methyltransferases, and one RNA methyltransferase)) EUB0000272b SMYD3
T1 sequence (whole entry): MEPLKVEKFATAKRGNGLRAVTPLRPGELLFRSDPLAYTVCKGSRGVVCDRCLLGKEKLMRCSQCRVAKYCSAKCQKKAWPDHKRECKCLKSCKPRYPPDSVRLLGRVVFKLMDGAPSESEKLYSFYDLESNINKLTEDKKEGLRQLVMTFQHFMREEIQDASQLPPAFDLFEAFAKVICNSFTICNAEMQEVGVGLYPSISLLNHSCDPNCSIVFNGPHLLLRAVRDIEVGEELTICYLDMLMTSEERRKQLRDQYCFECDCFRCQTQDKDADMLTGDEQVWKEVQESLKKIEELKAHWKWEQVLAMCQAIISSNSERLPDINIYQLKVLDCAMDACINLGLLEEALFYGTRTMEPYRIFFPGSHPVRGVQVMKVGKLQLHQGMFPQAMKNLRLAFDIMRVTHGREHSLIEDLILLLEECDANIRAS

[2] = biological target: T2, Serine/threonine-protein kinase ICK (Homo sapiens) (UniProt Q9UPZ9); test: Selectivity interaction (KinomeScan (DiscoverX)) EUB0000666a ICK; settings: at 10 µM
T2 sequence (whole entry): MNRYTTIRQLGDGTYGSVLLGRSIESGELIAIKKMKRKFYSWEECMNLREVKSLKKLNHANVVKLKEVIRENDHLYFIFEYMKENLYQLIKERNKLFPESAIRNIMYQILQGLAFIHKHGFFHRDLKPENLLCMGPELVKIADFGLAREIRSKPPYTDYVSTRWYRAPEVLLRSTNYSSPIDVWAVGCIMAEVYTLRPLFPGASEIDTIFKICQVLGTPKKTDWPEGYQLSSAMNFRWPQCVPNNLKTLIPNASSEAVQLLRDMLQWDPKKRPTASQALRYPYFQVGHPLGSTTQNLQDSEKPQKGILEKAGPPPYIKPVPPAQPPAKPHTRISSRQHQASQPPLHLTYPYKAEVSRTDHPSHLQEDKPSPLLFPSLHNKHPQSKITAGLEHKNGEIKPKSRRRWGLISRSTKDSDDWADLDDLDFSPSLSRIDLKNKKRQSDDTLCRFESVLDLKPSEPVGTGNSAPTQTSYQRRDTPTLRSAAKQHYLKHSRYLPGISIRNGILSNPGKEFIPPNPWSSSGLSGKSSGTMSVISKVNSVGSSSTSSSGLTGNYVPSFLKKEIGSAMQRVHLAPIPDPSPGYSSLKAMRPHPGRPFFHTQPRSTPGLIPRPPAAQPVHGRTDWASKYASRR

[3] = biological target: Serine/threonine-protein kinase PAK 2 (Homo sapiens) (UniProt Q13177); test: Selectivity interaction (Upstate Kinase Profiler service (Millipore)) EUB0000056c PAK2; settings: at 1 µM
[4] = biological target: Serine/threonine-protein kinase PLK3 (Homo sapiens, UniProt Q9H4B4); test: Selectivity interaction (KinomeScan (DiscoverX)) EUB0001619a PLK3; settings: at 1 µM
hERG (KCNH2) = hERG (KCNH2) (Homo sapiens, UniProt Q12809); test: Selectivity interaction (Panel of kinases, GPCRs, ion channels and transporters (enzymatic assay)) EUB0000266bCl KCNH2
[5] = biological target: T3, Serine/threonine-protein kinase PLK4 (Homo sapiens) (UniProt O00444); test: Selectivity interaction (KinomeScan (DiscoverX)) EUB0000092b PLK4; settings: at 10 µM
T3 sequence (whole entry): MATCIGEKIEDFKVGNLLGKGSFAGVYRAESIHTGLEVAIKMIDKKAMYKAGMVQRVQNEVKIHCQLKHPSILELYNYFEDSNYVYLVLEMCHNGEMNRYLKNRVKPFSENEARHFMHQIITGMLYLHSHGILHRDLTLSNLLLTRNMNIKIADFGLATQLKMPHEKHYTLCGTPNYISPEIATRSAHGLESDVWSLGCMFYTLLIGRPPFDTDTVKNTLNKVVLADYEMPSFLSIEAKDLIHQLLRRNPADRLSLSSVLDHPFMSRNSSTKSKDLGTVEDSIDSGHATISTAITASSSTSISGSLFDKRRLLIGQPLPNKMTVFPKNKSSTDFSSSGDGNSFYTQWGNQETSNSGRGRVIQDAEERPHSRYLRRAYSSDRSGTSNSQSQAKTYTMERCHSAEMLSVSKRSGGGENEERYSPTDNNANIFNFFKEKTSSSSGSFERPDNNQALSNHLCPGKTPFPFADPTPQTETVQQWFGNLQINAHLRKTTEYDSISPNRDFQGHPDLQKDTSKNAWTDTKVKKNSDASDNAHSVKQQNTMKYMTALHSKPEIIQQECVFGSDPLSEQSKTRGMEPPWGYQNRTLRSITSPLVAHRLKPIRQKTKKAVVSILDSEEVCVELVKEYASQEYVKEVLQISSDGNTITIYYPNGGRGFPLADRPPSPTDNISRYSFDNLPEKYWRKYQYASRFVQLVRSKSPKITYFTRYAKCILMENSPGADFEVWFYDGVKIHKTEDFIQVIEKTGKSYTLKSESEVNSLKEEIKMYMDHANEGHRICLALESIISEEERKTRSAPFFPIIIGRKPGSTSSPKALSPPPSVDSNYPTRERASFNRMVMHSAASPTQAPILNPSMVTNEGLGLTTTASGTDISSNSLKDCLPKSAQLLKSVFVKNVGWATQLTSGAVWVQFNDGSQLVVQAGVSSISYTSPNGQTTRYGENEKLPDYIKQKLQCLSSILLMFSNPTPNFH

Chain of Serine/threonine-protein kinase PAK 2 (Homo sapiens) (Q13177 whole entry): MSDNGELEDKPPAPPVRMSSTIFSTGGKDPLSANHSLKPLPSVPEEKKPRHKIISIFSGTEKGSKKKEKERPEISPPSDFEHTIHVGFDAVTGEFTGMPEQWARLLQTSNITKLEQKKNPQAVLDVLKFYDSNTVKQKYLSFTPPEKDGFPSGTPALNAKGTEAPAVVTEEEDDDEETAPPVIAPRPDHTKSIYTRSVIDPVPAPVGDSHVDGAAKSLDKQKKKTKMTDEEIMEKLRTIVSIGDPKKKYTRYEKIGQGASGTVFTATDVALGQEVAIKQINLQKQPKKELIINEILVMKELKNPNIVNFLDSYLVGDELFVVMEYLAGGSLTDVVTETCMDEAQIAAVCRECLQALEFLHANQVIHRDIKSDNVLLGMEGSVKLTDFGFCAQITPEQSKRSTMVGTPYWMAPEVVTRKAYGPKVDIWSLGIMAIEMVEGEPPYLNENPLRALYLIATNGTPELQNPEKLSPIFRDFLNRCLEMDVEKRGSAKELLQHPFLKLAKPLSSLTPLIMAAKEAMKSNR
Chain of Serine/threonine-protein kinase PLK3 (Q9H4B4 whole entry, looked up): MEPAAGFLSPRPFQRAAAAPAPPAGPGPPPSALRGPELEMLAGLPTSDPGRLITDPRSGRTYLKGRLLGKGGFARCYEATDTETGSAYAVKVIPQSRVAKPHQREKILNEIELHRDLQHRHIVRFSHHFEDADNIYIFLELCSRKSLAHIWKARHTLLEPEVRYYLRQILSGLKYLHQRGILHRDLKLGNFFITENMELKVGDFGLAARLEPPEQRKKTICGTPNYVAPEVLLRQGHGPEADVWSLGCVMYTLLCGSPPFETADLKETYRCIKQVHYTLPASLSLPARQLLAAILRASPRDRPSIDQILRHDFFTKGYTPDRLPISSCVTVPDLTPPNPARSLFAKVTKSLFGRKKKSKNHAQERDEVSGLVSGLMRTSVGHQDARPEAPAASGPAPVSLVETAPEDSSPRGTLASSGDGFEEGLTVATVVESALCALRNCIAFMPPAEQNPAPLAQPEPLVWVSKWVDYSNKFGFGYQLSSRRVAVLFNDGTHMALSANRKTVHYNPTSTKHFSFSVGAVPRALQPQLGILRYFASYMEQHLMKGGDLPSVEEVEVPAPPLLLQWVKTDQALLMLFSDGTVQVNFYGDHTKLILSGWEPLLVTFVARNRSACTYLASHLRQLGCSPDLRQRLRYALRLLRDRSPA
Chain of hERG (KCNH2) (Q12809 whole entry): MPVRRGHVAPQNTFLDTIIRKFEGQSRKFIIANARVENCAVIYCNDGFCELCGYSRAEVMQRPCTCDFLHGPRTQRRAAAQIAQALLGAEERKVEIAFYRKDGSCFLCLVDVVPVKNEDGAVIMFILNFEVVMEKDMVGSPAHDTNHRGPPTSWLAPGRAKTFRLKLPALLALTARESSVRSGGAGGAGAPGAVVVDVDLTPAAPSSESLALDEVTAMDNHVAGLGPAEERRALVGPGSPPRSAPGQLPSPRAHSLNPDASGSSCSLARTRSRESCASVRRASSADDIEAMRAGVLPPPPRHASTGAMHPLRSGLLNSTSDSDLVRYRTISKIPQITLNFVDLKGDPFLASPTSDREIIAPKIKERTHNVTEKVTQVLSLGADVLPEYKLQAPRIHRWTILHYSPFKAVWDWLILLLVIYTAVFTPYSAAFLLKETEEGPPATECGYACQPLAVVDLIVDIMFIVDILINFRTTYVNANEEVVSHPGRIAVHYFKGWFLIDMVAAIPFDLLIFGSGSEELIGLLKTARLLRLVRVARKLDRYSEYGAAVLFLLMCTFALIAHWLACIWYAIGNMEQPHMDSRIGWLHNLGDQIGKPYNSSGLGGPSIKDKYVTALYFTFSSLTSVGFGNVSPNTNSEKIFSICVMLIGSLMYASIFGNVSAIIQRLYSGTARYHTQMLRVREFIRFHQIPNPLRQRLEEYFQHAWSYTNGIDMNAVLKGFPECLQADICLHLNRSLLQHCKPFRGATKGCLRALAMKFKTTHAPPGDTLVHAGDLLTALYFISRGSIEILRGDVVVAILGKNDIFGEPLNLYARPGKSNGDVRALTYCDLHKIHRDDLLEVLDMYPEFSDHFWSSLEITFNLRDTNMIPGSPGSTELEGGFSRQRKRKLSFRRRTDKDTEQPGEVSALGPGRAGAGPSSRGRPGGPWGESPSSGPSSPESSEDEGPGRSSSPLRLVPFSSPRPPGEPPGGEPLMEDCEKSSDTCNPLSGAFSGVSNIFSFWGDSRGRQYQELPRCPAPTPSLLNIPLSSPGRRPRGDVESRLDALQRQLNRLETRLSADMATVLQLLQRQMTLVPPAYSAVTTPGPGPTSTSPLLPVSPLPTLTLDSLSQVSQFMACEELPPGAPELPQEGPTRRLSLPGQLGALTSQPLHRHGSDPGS

## Cc1cc(C)cc([C@H]2c3cc(C)ccc3NC(=O)CN2C(=O)c2ccc(Br)s2)c1
[1]; at 1 µM
  % of activity: 97.3%
[1]; at 10 µM
  % of activity: 102%

## O=C(NOC[C@H](O)CO)c1ccc(F)c(F)c1Nc1ccc(I)cc1F
[2]
  % of control: 84%

## Cc1ccc(-c2ccc3c(ccc4sc5c(c43)NC[C@@H](C)NC5=O)n2)cn1
[3]
  % of inhibition: 37%

## N#Cc1cccc(-c2c[nH]c3ncnc(N4CCOCC4)c23)c1
[4]
  % of control: 100%

## CCn1c(-c2nc3cc(C(=O)N4CCCC(N)C4)ccc3n2C)cc2ccccc21 (configuration not stated)
hERG (KCNH2)
  XC50: 6.31 µM

## CCC(=O)N1CCN(c2ccc(-n3c(=O)ccc4cnc5ccc(-c6cnc7ccccc7c6)cc5c43)cc2C(F)(F)F)CC1
[5]
  % of control: 100%

Source: ChEMBL document CHEMBL5465560, “Selectivity Literature for EUbOPEN Chemogenomic Library” (2024)
